The text below walks through data of patent EP0190464A2, “Novel anti-cancer drugs” (YEDA RESEARCH AND DEVELOPMENT COMPANY LIMITED, priority 1984, dated 1986).

Data set [1] has as its system tumors. As to the kind of experiment: Activity against tumors in vivo (general statement). The settings on record: uncomplexed salt.
Data set [2] relates to 38C-13 tumor cells. As to the kind of experiment: Inhibition of DNA synthesis ([3H]-methylthymidine incorporation). The settings on record: Fig. 2. In kind it is cell-based, murine. The method, then: Inhibition of DNA synthesis by the free platinum compounds of their complexes was determined as follows. Tumor cells (2-5 x 10^4/0.1 ml) suspended in their suitable grwoth media were dispersed into wells of microtiter plates. The Platinum compounds or complexes were added to the cells in […] aliquots. The plates were incubated for 21 hr at 37 °C in a humidified atmosphere of 5% CO2 in air. At that time 10 µl containing 0.5 µci of [^3H]-methylthymidine were added to each well and the plates were incubated for 3 hr as above. The reaction was terminated using a Titerteck cell harvester.
Pt complexes used in the in vitro and in vivo experiments were prepared under conditions of maximal binding, that is, 98-100% binding of the free drugs. In vivo experiments were performed with cis-Pt and cis-aq complexes. […] Cis-Pt and cis-aq complexes of dex-NH2 were tested and found to be active in vitro against 5 murine tumors (EL-4, 38-C13, L1210, RDM and F-9) and 2 human derived tumors (Hela and Osteosarcoma). […] This activity was lost, however upon exhaustive dialysis.

Data set [3] concerns F-9 murine embryonal carcinoma cells. The data set is described as follows: In vivo suppression of F-9 embryonal carcinoma, I.P. tumor and I.P. treatment. Further details: species or system Balb/c mice; effective dose (range): unit not given here. The settings on record: for survival (average): free drug at optimal doses, one day after tumor. On the procedure:
In vivo experiments were performed with F-9 murine embryonal carcinoma cells which were maintained in-vitro in DMEM supplemented with 10% fetal calf serum, glutamine and antibiotics, in gelatine (0.1%) coated culture flasks. In-vivo experiments were performed in female Balb/c mice at the age of 2-3 months.
In experiment I, 300,000 tumor cells were inoculated intraperitoneally (I.P.) into Balb/c mice.
The in vivo chemotherapeutic effect of the different complexes in comparison with free drugs was evaluated by the suppression of F9 embryonal carcinoma in Balb/c mice. […]

Data set [4] in a line: Toxicity in tumor-free mice, single I.V. injection. In kind it is in vivo. Particulars: free drugs, ICR mice. On the procedure: Preliminary toxicity experiments with CM-dex and ?ex-NH2 complexes were performed to compare the toxicity of the free drugs and the complexes in tumor-free ICR mice. Pairs of mice were given a single I.V. injection of each of the drugs or drug complexes at a wide concentration range. Death of mice due to toxicity occurred between 1 to 7 days after injection. The results (Table 8) indicate the maximal non-toxic (none of the mice died) and the minimal toxic dose (death of both mice). […] The CM-dex T-40 of both drugs were also toxic although somewhat less than the free drugs, with no significant difference between the cis-Pt and cis-aq complexes. […] The dex-NH2 were also considerably less toxic than the free drugs.

Setting [5] is: Exp. II: 600,000 cells I.P., treatment 2 days after tumor, 60 µg.
Setting [6] is: Exp. I: 300,000 tumor cells I.P., 50 µg, out of 5 TBM.

Regarding `[Cl][Pt-2]([Cl])([Cl])[Cl].[K+].[K+]` [K2PtCl4], the “activity against tumors in vivo” value in data set [1] was “essentially inactive”. The “fold less inhibitory than cis-Pt and cis-aq” value in data set [2] came to 20 fold. Besides, the IC50 in data set [2] (read-out: 50% inhibition of DNA synthesis, 21 hr at 37°C with drug, then 3 hr [3H]-methylthymidine pulse) came out at 20 µM.

For `N.N.[Cl][Pt][Cl]` [cis-Pt, Cis-dichlorodiammine Platinum (II)], the “died of the tumor” value in data set [3] (Exp. I: 300,000 tumor cells I.P., 100 ug I.P. 1 day after tumor inoculation) is 1/5. The “time of death of the tumor after receiving the tumor cells” value in data set [3] (Exp. I: 300,000 tumor cells I.P., 100 ug I.P. day 1, the 1/5 mouse that died of tumor) is 54 days. Besides, the “protective against the tumor” value in data set [3] (setting [5]) is 4/5. The “survival (average)” value in data set [3] (F9 tumor, Table 7) was 60-80%.

As for `N.N.O.O.O=[N+]([O-])[O-].O=[N+]([O-])[O-].[Pt+2]` [cis-aq, diaquodiammine Platinum (II)-nitrate], in data set [4], the “toxicity compared with cis-Pt” value is on record as “more toxic than cis-Pt”. Also, in data set [3] (setting [6]), the “died of drug toxicity” value turned out to be 1, the “died of the tumor” value worked out at 3 and the survived stood at 1. In data set [3] (setting [5]), the “non-protective against the tumor” value is 2/5 and the toxic was 3/5. For the same compound, the “effective dose (range)” value in data set [3] (F9 tumor, single dose, Table 5) is on record as 40. For the same compound, the “survival (average)” value in data set [3] (F9 tumor, Table 7) is on record as 60-80%. The “toxicity at a slightly higher than optimal dose” value in data set [3] (F9 tumor, free drug, Table 7) was “at least partially toxic”.
